Laboratory results published in publication PMC4409382, “Structural Analysis of the 14-3-3ζ/Chibby Interaction Involved in Wnt/β-Catenin Signaling” (PLoS ONE, 2015).
Changes are numbered by the printed parent chain. Square brackets hold non-standard residues; d marks the D form. Peptide text beside a SMILES is read from it. pS = N[C@@H](COP(=O)(O)O)C(=O)O

Experiments:
Type in all cases: binding
14-3-3ζ = biological target: T1, 14-3-3ζ (Homo sapiens, UniProt P63104); assay: ITC of Cby peptides titrated into 14-3-3ζ; details: for Kd: 25°C (298.15 K); for n (binding stoichiometry of monomeric 14-3-3 and Cby peptide): 25°C; for T∆S / ∆G / ∆H / TΔS / ΔG / ΔH: 298.15 K; for T∆S / ∆G / ∆H: duplicate set (S1 Table); for TΔS / ΔG / ΔH: pH 6.8, Table 1 set of duplicate experiments
T1 construct: Both full-length 14-3-3ζ and 14-3-3ζΔC12 were expressed as N-terminally His-tagged protein; His tag (TEV-cleavable) (N, cleaved yes); made in house; host or cells: Escherichia coli BL21 (DE3) pLysS
T1 sequence (P63104 1-245): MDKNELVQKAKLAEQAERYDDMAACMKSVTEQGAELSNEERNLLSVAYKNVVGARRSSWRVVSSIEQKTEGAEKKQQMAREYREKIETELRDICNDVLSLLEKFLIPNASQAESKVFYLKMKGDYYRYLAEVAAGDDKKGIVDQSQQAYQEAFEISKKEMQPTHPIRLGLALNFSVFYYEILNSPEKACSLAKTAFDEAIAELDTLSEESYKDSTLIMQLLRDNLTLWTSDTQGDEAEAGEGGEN
From the text: (§1) The human14-3-3ζ ORF purchased from GeneCopoeia was transferred into Gateway pDEST17 vector (Invitrogen). The 14-3-3ζΔC12, where the 12 C-terminal residues were deleted, was then generated from the full-length construct using QuikChange II Site-Directed Mutagenesis Kit (Strategene). Both full-length 14-3-3ζ and 14-3-3ζΔC12 were expressed as N-terminally His-tagged protein in Escherichia coli (E. coli) BL21 (DE3) pLysS in M9 medium. For unlabeled protein, protein expression was induced at an O.D.600 of 0.9 by adding 0.75 mM IPTG at 18°C for 24 h. The ^15N, ^13C, ^2H labeled 14-3-3ζΔC12 was produced by growing E. coli in deuterated M9 medium. Cells adapted to 70% D2O were used to inoculate a 1 L culture of M9 prepared in 100% D2O. Cells were grown at 37°C and overexpression was induced at an O.D.600 of 0.6 with 0.75 mM IPTG. After a 60-h induction at 18°C, the cells were harvested. All 14-3-3ζ constructs used in this study were purified from the crude lysate by affinity chromatography using Ni Sepharose Fast Flow beads (Amersham Biosciences). The tag was then cleaved by overnight incubation with His-tagged tobacco etch virus (TEV) protease at 25°C. The cleaved 14-3-3ζ, which retains an N-terminal glycine, was purified by passing the mixture through Ni Sepharose Fast Flow beads. The final yields for the 14-3-3ζ proteins were ~50 mg per L of M9 media (including deuterated media).
(§2) The Cby peptides used in this study were purchased from GenScript USA Inc. and the TUFTS University Core Facility. From GenScript USA Inc.: Cby 13-mer (NH2-^12KTPPRKSASLSNL^24-COOH), Cby S20D 13-mer (NH2-^12KTPPRKSADLSNL^24-COOH), Cby S20E 13-mer (NH2-^12KTPPRKSAELSNL^24-COOH), pCby 13-mer (NH2-^12KTPPRKSApSLSNL^24-COOH) and pCby 18-mer ((NH2-^12KTPPRKSApSLSNLHSLDR^29-COOH). From TUFTS: pCby 7-mer (Ac-^16RKSApSLS^22-NH2), pCby 11-mer (NH2-^12KTPPRKSApSLS^22-NH2), pCby S22P 7-mer (Ac-^16RKSApSLP^22-NH2), pCby S22P 13-mer (NH2-^12KTPPRKSApSLPNL^24-COOH) and pCby S22P 18-mer ([…]). Peptides were dissolved and dialyzed in 50 mM sodium phosphate, 100 mM NaCl at pH 6.8 for ITC and NMR experiments.
(§3) ITC experiments were performed on a VP-ITC instrument (MicroCal) at 25°C. The protein and peptide samples were dialyzed into a buffer containing 50 mM sodium phosphate, 100 mM NaCl, 1 mM DTT at pH 6.8 and degassed before the experiments. In a typical experiment, 5 μL aliquots of ~1–2 mM peptide were titrated stepwise into the 1.4 mL sample cell containing ~100–200 μM 14-3-3ζ. The association constant (Ka), molar binding stoichiometry (n) and the binding enthalpy (ΔH), entropy (ΔS) and Gibbs free energy (ΔG) were determined by fitting the binding isotherm to a one-site model with MicroCal Origin7 software. All ITC experiments were performed in duplicate. A duplicate set of thermodynamic derived binding parameters are found in S1 Table. Peptide and protein concentrations were determined from amino acid analysis (Amino Acid Analysis Facility, SickKids, Toronto, ON).

14-3-3ζΔC12 = biological target: T2, 14-3-3ζΔC12 (Homo sapiens, UniProt P63104); assay: ITC of Cby peptides titrated into 14-3-3ζΔC12; details: 14-3-3ζΔC12 in ITC cell; for n (binding stoichiometry of monomeric 14-3-3 and Cby peptide): 25°C
T2 construct: The 14-3-3ζΔC12, where the 12 C-terminal residues were deleted, was then generated from the full-length construct; His tag (TEV-cleavable) (N, cleaved yes); made in house; host or cells: Escherichia coli BL21 (DE3) pLysS
T2 sequence (P63104 1-233 limits assumed): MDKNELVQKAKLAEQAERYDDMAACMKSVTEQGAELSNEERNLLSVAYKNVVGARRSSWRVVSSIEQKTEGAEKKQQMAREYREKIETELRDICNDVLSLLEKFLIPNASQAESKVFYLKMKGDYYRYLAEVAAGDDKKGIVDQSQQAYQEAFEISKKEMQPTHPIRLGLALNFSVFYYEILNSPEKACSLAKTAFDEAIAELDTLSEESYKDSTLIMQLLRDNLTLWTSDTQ
From the text: as §1, §2, §3

14-3-3ζ K49A = biological target: T3, 14-3-3ζ K49A (Homo sapiens, UniProt P63104, K49A); assay: ITC of Cby peptides titrated into 14-3-3ζ K49A; details: for n (binding stoichiometry of monomeric 14-3-3 and Cby peptide) / TΔS / ΔG / ΔH / T∆S / ∆G / ∆H: 14-3-3ζ K49A in ITC cell; for n (binding stoichiometry of monomeric 14-3-3 and Cby peptide): 25°C, pH 6.8; for TΔS / ΔG / ΔH / T∆S / ∆G / ∆H: 298.15 K; for ΔΔG of binding, 14-3-3ζ K49A compared to WT 14-3-3ζ / effect of 14-3-3ζ K49A mutation on binding affinity (fold reduction): ITC; for ΔΔG of binding, 14-3-3ζ K49A compared to WT 14-3-3ζ: 18-mer peptides; for effect of 14-3-3ζ K49A mutation on binding affinity (fold reduction): versus WT 14-3-3ζ
T3 construct: His tag (TEV-cleavable) (N, cleaved yes); made in house
T3 sequence (P63104 1-245 K49A): T1 sequence (P63104 1-245) with K49A
From the text: In numerous crystal structures of 14-3-3 proteins in complex with phosphorylated S/T peptides, the conserved K49 (numbering refers to the ζ isoform) side-chain is observed forming a hydrogen bond with the phosphate group on pS/pT (illustrated in S3 Fig with an elucidated 14-3-3ζ/Raf1 structure). With Cby’s S22 side-chain juxtaposed between 14-3-3ζ residues K49 and R56, the K49 side-chain is sterically hindered from contacting pS20. As such, we speculated that the increases in binding affinity to 14-3-3ζ observed for the S22P mutant peptides might be the result of the favorable contacts between K49 and pS20 facilitated by the proline-induced conformational changes. To test this, a K49A mutation was introduced into 14-3-3ζ and ITC titrations were performed with 18-mer WT and S22P Cby peptides.
as §2, §3

[1] = 50 mM sodium phosphate, 100 mM NaCl, 1 mM DTT, pH 6.8, one-site model, Table 1 set of duplicate experiments
[2] = pH 6.8, duplicate set (S1 Table)
[3] = pH 6.8, Table 1 set of duplicate experiments
[4] = 298.15 K, Table 1 set of duplicate experiments
[5] = 298.15 K, duplicate set (S1 Table)
[6] = Table 1 set of duplicate experiments

Row | Structure (SMILES) | n (binding stoichiometry of monomeric 14-3-3 and Cby peptide) (14-3-3ζ; [1]) | n (binding stoichiometry of monomeric 14-3-3 and Cby peptide) (14-3-3ζ; [2]) | T∆S (14-3-3ζ) | ∆G (14-3-3ζ) | ∆H (14-3-3ζ) | TΔS (14-3-3ζ) | ΔG (14-3-3ζ) | ΔH (14-3-3ζ) | n (binding stoichiometry of monomeric 14-3-3 and Cby peptide) (14-3-3ζΔC12; [3]) | n (binding stoichiometry of monomeric 14-3-3 and Cby peptide) (14-3-3ζΔC12; [2]) | TΔS (14-3-3ζΔC12; [4]) | ΔG (14-3-3ζΔC12; [4]) | ΔH (14-3-3ζΔC12; [4]) | T∆S (14-3-3ζΔC12; [5]) | ∆G (14-3-3ζΔC12; [5]) | ∆H (14-3-3ζΔC12; [5]) | n (binding stoichiometry of monomeric 14-3-3 and Cby peptide) (14-3-3ζ K49A; [6]) | n (binding stoichiometry of monomeric 14-3-3 and Cby peptide) (14-3-3ζ K49A; duplicate set (S1 Table)) | TΔS (14-3-3ζ K49A; [6]) | ΔG (14-3-3ζ K49A; [6]) | further results
1 | CC(C)C[C@H](NC(=O)[C@H](CC(N)=O)NC(=O)[C@H](CO)NC(=O)[C@H](CC(C)C)NC(=O)[C@H](COP(=O)(O)O)NC(=O)[C@H](C)NC(=O)[C@H](CO)NC(=O)[C@H](CCCCN)NC(=O)[C@H](CCCNC(=N)N)NC(=O)[C@@H]1CCCN1C(=O)[C@@H]1CCCN1C(=O)[C@@H](NC(=O)[C@@H](N)CCCCN)[C@@H](C)O)C(=O)O [Cby 13-mer] (H-KTPPRKSA[pS]LSNL-OH) | 1.00 | 1.07 | 4.07 kcal/mol | -6.67 ± 0.02 kcal/mol | -2.60 ± 0.03 kcal/mol | 3.97 kcal/mol | -6.60 ± 0.02 kcal/mol | -2.63 ± 0.02 kcal/mol | 0.99 | 1.06 | 4.50 kcal/mol | -6.58 ± 0.04 kcal/mol | -2.08 ± 0.03 kcal/mol | 4.52 kcal/mol | -6.60 ± 0.02 kcal/mol | -2.08 ± 0.03 kcal/mol |  |  |  |  | Kd (14-3-3ζ; 50 mM sodium phosphate, 100 mM NaCl, 1 mM DTT, pH 6.8, duplicate set (S1 Table)): 12.8 ± 0.5 µM; Kd (14-3-3ζ; [1]): 14.5 ± 0.6 µM; Kd (14-3-3ζΔC12; 298.15 K, pH 6.8, duplicate set (S1 Table)): 14.5 ± 0.6 µM
2 | CC(C)C[C@H](NC(=O)[C@H](CO)NC(=O)[C@H](Cc1c[nH]cn1)NC(=O)[C@H](CC(C)C)NC(=O)[C@H](CC(N)=O)NC(=O)[C@@H]1CCCN1C(=O)[C@H](CC(C)C)NC(=O)[C@H](COP(=O)(O)O)NC(=O)[C@H](C)NC(=O)[C@H](CO)NC(=O)[C@H](CCCCN)NC(=O)[C@H](CCCNC(=N)N)NC(=O)[C@@H]1CCCN1C(=O)[C@@H]1CCCN1C(=O)[C@@H](NC(=O)[C@@H](N)CCCCN)[C@@H](C)O)C(=O)N[C@@H](CC(=O)O)C(=O)N[C@@H](CCCNC(=N)N)C(=O)O [Cby 18-mer S22P] (H-KTPPRKSA[pS]LPNLHSLDR-OH) | 1.05 | 1.08 | 0.79 kcal/mol | -8.76 ± 0.02 kcal/mol | -7.97 ± 0.01 kcal/mol | 0.76 kcal/mol | -8.79 ± 0.02 kcal/mol | -8.03 ± 0.02 kcal/mol |  |  |  |  |  |  |  |  | 1.07 | 0.97 | 0.67 kcal/mol | -7.80 ± 0.06 kcal/mol | fold tighter binding than the S22P 7-mer (14-3-3ζ): ~ 9 fold; ΔH (14-3-3ζ K49A; [6]): -7.13 ± 0.03 kcal/mol; T∆S (14-3-3ζ K49A; duplicate set (S1 Table)): 1.17 kcal/mol; ∆G (14-3-3ζ K49A; duplicate set (S1 Table)): -7.84 ± 0.03 kcal/mol; ∆H (14-3-3ζ K49A; duplicate set (S1 Table)): -6.67 ± 0.04 kcal/mol; ΔΔG of binding, 14-3-3ζ K49A compared to WT 14-3-3ζ (14-3-3ζ K49A): ~ 1.0 kcal/mol; effect of 14-3-3ζ K49A mutation on binding affinity (fold reduction) (14-3-3ζ K49A): ~ 5 fold
3 | CC(C)C[C@H](NC(=O)[C@H](COP(=O)(O)O)NC(=O)[C@H](C)NC(=O)[C@H](CO)NC(=O)[C@H](CCCCN)NC(=O)[C@H](CCCNC(=N)N)NC(=O)[C@@H]1CCCN1C(=O)[C@@H]1CCCN1C(=O)[C@@H](NC(=O)[C@@H](N)CCCCN)[C@@H](C)O)C(=O)N[C@@H](CO)C(=O)N[C@@H](CC(N)=O)C(=O)N[C@@H](CC(C)C)C(=O)N[C@@H](Cc1c[nH]cn1)C(=O)N[C@@H](CO)C(=O)N[C@@H](CC(C)C)C(=O)N[C@@H](CC(=O)O)C(=O)N[C@@H](CCCNC(=N)N)C(=O)O [Cby 18-mer] (H-KTPPRKSA[pS]LSNLHSLDR-OH) | 0.96 | 0.94 | 2.91 kcal/mol | -7.24 ± 0.04 kcal/mol | -4.33 ± 0.06 kcal/mol | 2.93 kcal/mol | -7.28 ± 0.03 kcal/mol | -4.35 ± 0.05 kcal/mol | 1.04 | 1.02 | 3.70 kcal/mol | -7.05 ± 0.03 kcal/mol | -3.35 ± 0.06 kcal/mol | 3.77 kcal/mol | -6.92 ± 0.03 kcal/mol | -3.15 ± 0.04 kcal/mol | 1.01 | 1.07 | 3.23 kcal/mol | -7.39 ± 0.05 kcal/mol | greater affinity compared to the Cby 7-mer (fold, in words) (14-3-3ζ): nine-fold; ΔH (14-3-3ζ K49A; [6]): -4.16 ± 0.05 kcal/mol; T∆S (14-3-3ζ K49A; duplicate set (S1 Table)): 3.41 kcal/mol; ∆G (14-3-3ζ K49A; duplicate set (S1 Table)): -7.17 ± 0.06 kcal/mol; ∆H (14-3-3ζ K49A; duplicate set (S1 Table)): -3.76 ± 0.07 kcal/mol; ΔΔG of binding, 14-3-3ζ K49A compared to WT 14-3-3ζ (14-3-3ζ K49A): ~ 0.1 kcal/mol; effect of 14-3-3ζ K49A mutation on binding affinity (fold reduction) (14-3-3ζ K49A): does not affect
